Reference: patent US20060167115A1, “Compositions for the preservation of timber” (priority 2003, published 2006)

Experiments:
[1] = tested on: Poria placenta; test: Biological screening test (modified EN 113) of TBBA homologues; format: cell-based; settings: 8 weeks exposure; for Protective Effect (retention of the active ingredient in the wood): waterborne
Protocol: (§1) The following fungi were employed: Coniophora puteana (Brown rot fungus) and Poria placenta (Brown rot fungus). The following preservatives were tested: TBBF (waterborne), TBBE (waterborne), TBBZ (waterborne) and TBBS (waterborne).
(§2) Five concentrations of each preservative were tested: 3.0%, 2.0%, 1.0%, 0.1% and 0.05% (w/w). All wood blocks were of Scots pine sapwood (Pinus sylvestris) with a volume of 1 cm^3 (10 mm×10 mm×10 mm). Five replicates were used for each test specimen type and six virulence control specimens for each fungus and for each preservative were used as follows: • Treated test specimens: 2 (fungi)×5 (preservative concentrations)×1 (preservative)×5 (replicates)=50 test blocks • Untreated test specimens (for exposure alongside […] test blocks): 2 (fungi)×5 (preservative concentrations)×1 (preservative)×5 (replicates)=50 test blocks • Treated check test specimens: 1 (preservative)×5 (concentrations)×5 (replicates)=25 blocks
(§3) For all actives/preservatives in the test: • Virulence control specimens: 2 (fungi)×6 (replicates)=12 test blocks
(§4) After block treatments were completed, all the blocks were sterilized using ionizing radiation according to the conditions set out in European standard EN 113. The incubation period for the test (length of block exposure to the chosen basidiomycete fungi) was 8 weeks.
(§5) Weight changes for particular waterlogged specimens, when these were clearly unrepresentative of a group, were not included in the mean figures presented.

[2] = tested on: Coniophora puteana; test: as above; format: cell-based; settings: 8 weeks exposure; for Protective Effect (retention of the active ingredient in the wood): waterborne
Protocol: as §1, §2, §3, §4, §5

[3] = TBBE waterborne 0.05% w/w, retention 0.4 kg/m^3
[4] = TBBF waterborne 0.05% w/w, retention 0.4 kg/m^3
[5] = TBBZ waterborne 0.05% w/w, retention 0.4 kg/m^3, some waterlogging
[6] = TBBS waterborne 0.05% w/w, retention 0.4 kg/m^3
[7] = TBBS waterborne 0.1% w/w, retention 0.8 kg/m^3

Which “Corrected mean loss in mass (%)” value [1, 3] does the source give for `CC(c1cc(Br)c(O)c(Br)c1)c1cc(Br)c(O)c(Br)c1` [TBBE, 4,4′-Ethylidenebis(2,6-dibromophenol)] here?
The value was “No Decay (0.89)”.

What about the “Corrected mean loss in mass (%)” value ([1]; TBBE waterborne 0.1% w/w, retention 0.8 kg/m^3) of the same compound?
Its value is 28.67 (14.13) %.

And the “Corrected mean loss in mass (%)” value ([1]; TBBE waterborne 1.0% w/w, retention 8.3 kg/m^3, some waterlogging)?
Its value is “No Decay (W)”.

And the “Corrected mean loss in mass (%)” value ([1]; TBBE waterborne 2.0% w/w, retention 14.4 kg/m^3, some waterlogging)?
The value was “No Decay (W)”.

What about the “Corrected mean loss in mass (%)” value ([1]; TBBE waterborne 3.0% w/w, retention 24.6 kg/m^3) of the same compound?
Its value is “No Decay”.

What about the “Protective Effect (retention of the active ingredient in the wood)” value (shortened to “Protective Effect”) [1] of the same compound?
Its value is 0.8-8.3 kg/m^3.

And the “Corrected mean loss in mass (%)” value [2, 3]?
Its value is 22.96 (4.81) %.

And the “Corrected mean loss in mass (%)” value ([2]; TBBE waterborne 0.1% w/w, retention 0.7 kg/m^3)?
Its value is 26.57 (2.99) %.

What about the “Corrected mean loss in mass (%)” value ([2]; TBBE waterborne 1.0% w/w, retention 7.9 kg/m^3) of the same compound?
Its value is “No Decay”.

And the “Corrected mean loss in mass (%)” value ([2]; TBBE waterborne 2.0% w/w, retention 14.7 kg/m^3)?
The value was “No Decay”.

And the “Corrected mean loss in mass (%)” value ([2]; TBBE waterborne 3.0% w/w, retention 24.7 kg/m^3)?
Its value is “No Decay”.

And the “Protective Effect” value [2]?
Its value is 0.7-7.9 kg/m^3.

For `Oc1c(Br)cc(Cc2cc(Br)c(O)c(Br)c2)cc1Br` [TBBF, Bis(4-hydroxy-3,5-dibromophenyl)methane], which “Corrected mean loss in mass (%)” value [1, 4] is on record?
Its value is 24.20 (9.63) %.

And the “Corrected mean loss in mass (%)” value ([1]; TBBF waterborne 0.1% w/w, retention 0.8 kg/m^3)?
Its value is 20.90 (0.23) %.

And the “Corrected mean loss in mass (%)” value ([1]; TBBF waterborne 1.0% w/w, retention 7.7 kg/m^3)?
Its value is “No Decay”.

And the “Corrected mean loss in mass (%)” value ([1]; TBBF waterborne 2.0% w/w, retention 15.7 kg/m^3)?
The value was “No Decay”.

And the “Corrected mean loss in mass (%)” value ([1]; TBBF waterborne 3.0% w/w, retention 20.8 kg/m^3)?
The value was “No Decay”.

What about the “Protective Effect” value [1] of the same compound?
The value was 0.8-7.7 kg/m^3.

What about the “Corrected mean loss in mass (%)” value [2, 4] of the same compound?
Its value is 26.87 (7.38) %.

What about the “Corrected mean loss in mass (%)” value ([2]; TBBF waterborne 0.1% w/w, retention 0.8 kg/m^3, some waterlogging) of the same compound?
The value was 24.49 (2.12) (W) %.

And the “Corrected mean loss in mass (%)” value ([2]; TBBF waterborne 1.0% w/w, retention 7.9 kg/m^3)?
Its value is “No Decay”.

What about the “Corrected mean loss in mass (%)” value ([2]; TBBF waterborne 2.0% w/w, retention 15.1 kg/m^3) of the same compound?
Its value is “No Decay”.

And the “Corrected mean loss in mass (%)” value ([2]; TBBF waterborne 3.0% w/w, retention 23.1 kg/m^3)?
The value was “No Decay”.

And the “Protective Effect” value [2]?
The value was 0.8-7.9 kg/m^3.

`Oc1c(Br)cc(C2(c3cc(Br)c(O)c(Br)c3)CCCCC2)cc1Br` [TBBZ, 4,4′-Cyclohexylidenebis(2,6-dibromophenol)] was tested. Which “Corrected mean loss in mass (%)” value [1, 5] did it give?
Its value is 0.94 (3.19) (W) %.

And the “Corrected mean loss in mass (%)” value ([1]; TBBZ waterborne 0.1% w/w, retention 0.8 kg/m^3)?
The value was 33.47 (15.74) %.

What about the “Corrected mean loss in mass (%)” value ([1]; TBBZ waterborne 1.0% w/w, retention 5.9 kg/m^3) of the same compound?
The value was “No Decay”.

What about the “Corrected mean loss in mass (%)” value ([1]; TBBZ waterborne 2.0% w/w, retention 11.6 kg/m^3) of the same compound?
Its value is “No Decay”.

And the “Corrected mean loss in mass (%)” value ([1]; TBBZ waterborne 3.0% w/w, retention 18.6 kg/m^3)?
The value was “No Decay”.

And the “Protective Effect” value [1]?
Its value is 0.8-5.9 kg/m^3.

What about the “Corrected mean loss in mass (%)” value [2, 5] of the same compound?
The value was 33.57 (7.59) (W) %.

And the “Corrected mean loss in mass (%)” value ([2]; TBBZ waterborne 1.0% w/w, retention 6.8 kg/m^3)?
The value was 14.30 (—) %.

What about the “Corrected mean loss in mass (%)” value ([2]; TBBZ waterborne 2.0% w/w, retention 11.8 kg/m^3) of the same compound?
Its value is “No Decay”.

And the “Corrected mean loss in mass (%)” value ([2]; TBBZ waterborne 3.0% w/w, retention 17.6 kg/m^3)?
The value was “No Decay”.

What about the “Protective Effect” value [2] of the same compound?
Its value is 0.7-6.8 kg/m^3.

With `O=S(=O)(c1cc(Br)c(O)c(Br)c1)c1cc(Br)c(O)c(Br)c1` [TBBS, 4,4′-Sulfonyldi(2,6-dibromophenol)] as the compound, how does the “Corrected mean loss in mass (%)” value [1, 6] read?
The value was “No Decay”.

What about the “Corrected mean loss in mass (%)” value [1, 7] of the same compound?
The value was “No Decay”.

And the “Corrected mean loss in mass (%)” value ([1]; TBBS waterborne 1.0% w/w, retention 7.9 kg/m^3)?
Its value is “No Decay”.

What about the “Corrected mean loss in mass (%)” value ([1]; TBBS waterborne 2.0% w/w, retention 15.3 kg/m^3) of the same compound?
Its value is “No Decay”.

What about the “Corrected mean loss in mass (%)” value ([1]; TBBS waterborne 3.0% w/w, retention 25.0 kg/m^3) of the same compound?
Its value is “No Decay”.

What about the “Protective Effect” value [1] of the same compound?
Its value is 0.8-7.9 kg/m^3.

And the “Corrected mean loss in mass (%)” value [2, 6]?
Its value is 35.02 (6.61) %.

And the “Corrected mean loss in mass (%)” value [2, 7]?
The value was 35.49 (4.92) %.

And the “Corrected mean loss in mass (%)” value ([2]; TBBS waterborne 1.0% w/w, retention 7.6 kg/m^3)?
Its value is “No Decay”.

What about the “Corrected mean loss in mass (%)” value ([2]; TBBS waterborne 2.0% w/w, retention 16.1 kg/m^3) of the same compound?
The value was “No Decay”.

And the “Corrected mean loss in mass (%)” value ([2]; TBBS waterborne 3.0% w/w, retention 20.2 kg/m^3)?
Its value is “No Decay”.

And the “Protective Effect” value [2]?
The value was 0.8-7.6 kg/m^3.
